Measurements taken from ChEMBL document CHEMBL1149094, “3-(4-Aroyl-1-methyl-1H-pyrrol-2-yl)-N-hydroxy-2-propenamides as a new class of synthetic histone deacetylase inhibitors. 3. Discovery of novel lead compounds through structure-based drug design and docking studies” (J Med Chem, 2004).

Tests used:
Histone deacetylase 1 [1] = target: T1, Histone deacetylase 1 (Mus musculus, UniProt O09106); test: Inhibition of mouse Histone deacetylase 1 (HDAC1) receptor
Histone deacetylase 1 [2] = target: T1, Histone deacetylase 1; test: Inhibition of mouse HDAC1
Histone deacetylase HD2 [3] = target: T2, Histone deacetylase HD2 (Zea mays, UniProt Q94F81); test: Inhibition of maize histone deacetylase 2
T2 sequence (Q94F81 whole entry): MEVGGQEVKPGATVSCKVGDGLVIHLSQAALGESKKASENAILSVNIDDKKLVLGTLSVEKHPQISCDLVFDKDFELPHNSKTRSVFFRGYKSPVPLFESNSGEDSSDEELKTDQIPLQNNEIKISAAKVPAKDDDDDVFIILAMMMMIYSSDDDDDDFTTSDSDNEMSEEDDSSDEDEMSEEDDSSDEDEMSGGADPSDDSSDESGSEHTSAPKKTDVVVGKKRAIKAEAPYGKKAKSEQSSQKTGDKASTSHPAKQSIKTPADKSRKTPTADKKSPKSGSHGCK

[4] = target: T3, Histone deacetylase HD2 (Zea mays) (UniProt Q94F81); test: Percent inhibition of maize histone deacetylase 2 receptor at a dose of 30 uM
T3 sequence (whole entry): T2 sequence (Q94F81 whole entry)

Histone deacetylase HD2 [5] = target: T2, Histone deacetylase HD2; test: Inhibition of maize Histone deacetylase 2

T1 sequence (O09106 whole entry): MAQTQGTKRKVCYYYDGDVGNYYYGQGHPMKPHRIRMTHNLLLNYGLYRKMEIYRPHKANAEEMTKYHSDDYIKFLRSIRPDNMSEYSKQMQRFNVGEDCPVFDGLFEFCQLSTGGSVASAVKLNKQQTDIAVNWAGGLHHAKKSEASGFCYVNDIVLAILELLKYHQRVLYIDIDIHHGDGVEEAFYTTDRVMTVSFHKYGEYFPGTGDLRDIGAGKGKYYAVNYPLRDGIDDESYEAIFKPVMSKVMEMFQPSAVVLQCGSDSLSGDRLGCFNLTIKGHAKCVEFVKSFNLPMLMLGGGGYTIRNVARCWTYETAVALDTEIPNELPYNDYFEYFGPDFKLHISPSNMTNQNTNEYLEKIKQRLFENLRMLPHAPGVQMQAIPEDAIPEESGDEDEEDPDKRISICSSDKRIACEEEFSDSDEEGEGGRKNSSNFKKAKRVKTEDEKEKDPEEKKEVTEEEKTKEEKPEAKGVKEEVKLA

Compound: Cn1cc(/C=C/C(=O)NO)cc1C(=O)c1ccccc1
- IC50 (Histone deacetylase 1 [1]): 780 nM
- IC50 (Histone deacetylase 1 [2]): 776 nM
- IC50 (Histone deacetylase HD2 [3]): 50 nM
- inhibition [4]: 97%
- IC50 (Histone deacetylase HD2 [5]): 50.1 nM

Compound: Cn1c(/C=C/C(=O)NO)ccc1C(=O)c1ccccc1
- IC50 (Histone deacetylase 1 [1]): 250 nM
- IC50 (Histone deacetylase 1 [2]): 229 nM
- IC50 (Histone deacetylase HD2 [3]): 280 nM
- inhibition [4]: 95%
- IC50 (Histone deacetylase HD2 [5]): 251 nM
